Data taken from patent US7098195B2, “Fluorinated glucosamine analogs useful for modulating post-translational glycosylations on cells” (Health Research, Inc., priority 2001, dated 2006).
Like-named read-outs stand apart in the source and are kept apart here.

Experiments:
[1] = test system: E-selectin ligand activity of murine Th1 cells; test: Flow chamber analysis of E-selectin binding on murine Th1 cells; format: cell-based, mouse
Source text: CD4+ splenocytes were isolated from C57BL-6 mice by anti-murine CD4 L3T4 magnetic bead technology (Miltenyi Biotec) according to manufacturer's protocol. […] Culturing murine T helper cells in the presence of murine IL-12 and anti-murine IL-4 produces selectin binding Th1 cells by up-regulating FucTVII (69, 70) and core 2 enzyme (43–45, 71, 72), both critical for selectin ligand synthesis (i.e. decoration of PSGL-1 (67, 68)), and prevents the production of non-selectin binding Th2 cells (67–72). Th1 cells were also generated from mice deficient in α1,3 fucosyltransferase, FucTVII, and served as negative controls (33, 38, 40). Cells were harvested and re-plated at 2×10^6cells/ml on non-Ab coated plastic with murine IL-2 (20 ng/ml) in the presence or absence of murine IL-12 (10 ng/ml) and anti-murine IL-4 moAb 11B11 (10 μg/ml) for 48 h. […] Glycosylation inhibitors were added to cultures on day 6.5 for 30 hr, after first treating cells with neuraminidase (0.1 U/ml for 1 hr at 37° C.) to remove all cell surface terminal sialic acid resides and E and P-selectin ligand activity. Since selectin ligands are dependent on terminal sialic acid (α2,3 N-acetylneuraminic acid) for activity, this approach allowed for analysis of de novo synthesized selectin ligands in the presence of 0.05 mM 4-F-GlcNAc, N-glycan inhibitors, 0.23 mM swainsonine and 0.02 mM tunicamycin, and 1 mM GlcNAc (negative control).

[2] = test system: α-mannose (ConA staining); format: cell-based, human; conditions: compared with PBS or GlcNAc treatments
Procedure: For lectin blotting, cell lysates (25 μg/spot) were spotted onto methanol-permeabilized PVDF membrane and blocked in FBS for 1 h at RT. Blots were then probed with AP-Canavalia ensiformis agglutinin (ConA) (2.0 μg/ml PBS; specificity: α-mannose), AP-Triticum vulgaris (Wheat germ) agglutinin (WGA) (0.5 μg/ml PBS; specificity: terminal GlcNAc or GlcNAcβ1,4GlcNAc) or AP-Lycopersicon esculentum (tomato lectin) agglutinin (LEA) (1.0 μg/ml PBS; specificity: (Galβ1,4GlcNAc)n) for 1 h at RT (All lectins from EY Labs., Inc., San Mateo, Calif.). After washing 3× in PBS/0.1% Tween-20 and 1× in PBS (10 min each), blots were developed with Western Blue®.
To analyze and identify the glycan modifications on CLA^+ T-cells treated with 4-F-GlcNAc, lectin blotting experiments were performed with ConA (Specificity: α-mannose), WGA (Specificity: terminal GlcNAc or GlcNAcβ1,4GlcNAc) and LEA (Specificity: {Galβ1,4GlcNAc}n).

[3] = test system: HCELL/CD44 activity on human hematopoietic KG1a cells; test: Stamper-Woodruff adhesion assay, L-selectin-dependent lymphocyte adherence to KG1a cells; format: cell-based; conditions: for relative potency as inhibitor of HCELL activity: 4-F-GlcNAc vs swainsonine, tunicamycin vs both
Source text: To study the effects of 4-F-GlcNAc on the function of the L-selectin binding activity of CD44 (HCELL), we employed the shear-based, Stamper-Woodruff adhesion assay to examine the ability of 4-F-GlcNAc-treated KG1a cells to support L-selectin-dependent lymphocyte adherence. This assay is utilized to specifically assess the shear-dependent binding interactions between L-selectin naturally expressed on lymphocytes and HCELL expressed on KG1a cells (Dimitroff, C. J. et al. (2000) Proc. Nat. Acad. Sci., 97(25):13841–46; Sackstein, R. and Dimitroff, C. J. (2000) Blood, 96: 2765–74.). Before treating KG1a cells with 0.05, 0.1 or 0.5 mM 4-F-GlcNAc, we first pretreated KG1a cells with Vibrio cholerae neuraminidase (0.1 U/ml for 1 hr at 37° C.) to cleave all terminal α2,3 sialic acid-bearing residues and eliminate all HCELL activity. Glutaraldehyde-fixed monolayers of KG1a cells that were first treated with Vibrio cholerae neuraminidase (0.1 U/ml for 1 hr at 37° C.) then re-cultured in the presence of 4-F-GlcNAc (0.05–0.5 mM) for 30 hr at 37° C. Metabolic inhibitors swainsonine, an inhibitor of α-mannosidase II, tunicamycin, an inhibitor of N-acetylglucosamine phosphototransferase, were also utilized to compare the relative potencies of known glycosylation inhibitors. Human peripheral blood lymphocytes (5×10^6cells/ml RPMI1640 w/o NaBicarbonate/5%FBS) were overlayed onto KG1a monolayers at 80 rpm for 30 min. at 4° C., and after gently washing in PBS, lymphocytes bound to cell monolayers were fixed in 3% glutaraldehyde. Re-expression of HCELL activity or HECA-452-reactive CD44 on KG1a cells was determined after […] of 4-F-GlcNAc treatment. Bound lymphocytes were quantified at 100× magnification from a minimum of 5 fields from 2 slides, and the mean number of lymphocytes (standard error of the mean) was calculated.

[4] = 30 hr after neuraminidase, 0.05 mM 4-F-GlcNAc, 0.23 mM swainsonine, 0.02 mM tunicamycin, 1 mM GlcNAc

| Compound | recovery of E-selectin ligand activity of Th1 cells [1, 4] | ConA staining of lysates [2] | relative potency as inhibitor of HCELL activity [3] | inhibition at 50 µM ([3]; Homo sapiens, KG-1a, KG1a neuraminidase then recovery in 0.05 mM, read-out: % Inhibition (lymphocyte binding)) | inhibition at 100 µM ([3]; Homo sapiens, KG-1a, KG1a neuraminidase then recovery in 0.1 mM, read-out: % Inhibition (lymphocyte binding)) | inhibition at 500 µM ([3]; Homo sapiens, KG-1a, KG1a neuraminidase then recovery in 0.5 mM, read-out: % Inhibition (lymphocyte binding)) | Mean Lymphocyte Binding ([3]; KG1a neuraminidase then recovery in 0.05 mM) | Mean Lymphocyte Binding ([3]; KG1a neuraminidase then recovery in 0.1 mM) | Mean Lymphocyte Binding ([3]; KG1a neuraminidase then recovery in 0.5 mM) | recovery of E-selectin ligand activity of Th1 cells [1] | inhibition at 230 µM ([3]; Homo sapiens, KG-1a, KG1a neuraminidase then recovery in 0.23 mM, read-out: % Inhibition (lymphocyte binding)) | Mean Lymphocyte Binding ([3]; KG1a neuraminidase then recovery in 0.23 mM) |
| --- | --- | --- | --- | --- | --- | --- | --- | --- | --- | --- | --- | --- |
| CC(=O)N[C@H]1C(OC(C)=O)O[C@H](COC(C)=O)[C@@H](F)[C@@H]1OC(C)=O (stereo partly drawn) [4-F-GlcNAc, 2-acetamido-2-deoxy-1,3,6-tri-O-acetyl-4-deoxy-4-fluoro-D-glucopyranose] | completely inhibited | no effect | more potent inhibitor of HCELL activity | 60% | 78% | 94% | 93.6 | 50.6 | 15.4 |  |  |  |
| CC(=O)N[C@H]1C(O)O[C@H](CO)[C@@H](O)[C@@H]1O (some centres unmarked) [GlcNAc, N-acetylglucosamine] | no effect |  |  |  |  |  |  |  |  |  |  |  |
| O[C@H]1[C@H]2[C@H](O)CCCN2C[C@H]1O [swainsonine] |  | enhanced |  |  |  |  |  |  |  | no effect | 74% | 60.7 |
| tunicamycin |  | eliminated | more potent inhibitor of HCELL activity than both swainsonine and 4-F-GlcNAc |  |  |  |  |  |  | completely inhibited |  |  |
